The record followed here is ChEMBL document CHEMBL1133779, “A refined 3-dimensional QSAR of cytochrome P450 2C9: computational predictions of drug interactions” (J Med Chem, 2000).

T1 sequence (P11712 whole entry): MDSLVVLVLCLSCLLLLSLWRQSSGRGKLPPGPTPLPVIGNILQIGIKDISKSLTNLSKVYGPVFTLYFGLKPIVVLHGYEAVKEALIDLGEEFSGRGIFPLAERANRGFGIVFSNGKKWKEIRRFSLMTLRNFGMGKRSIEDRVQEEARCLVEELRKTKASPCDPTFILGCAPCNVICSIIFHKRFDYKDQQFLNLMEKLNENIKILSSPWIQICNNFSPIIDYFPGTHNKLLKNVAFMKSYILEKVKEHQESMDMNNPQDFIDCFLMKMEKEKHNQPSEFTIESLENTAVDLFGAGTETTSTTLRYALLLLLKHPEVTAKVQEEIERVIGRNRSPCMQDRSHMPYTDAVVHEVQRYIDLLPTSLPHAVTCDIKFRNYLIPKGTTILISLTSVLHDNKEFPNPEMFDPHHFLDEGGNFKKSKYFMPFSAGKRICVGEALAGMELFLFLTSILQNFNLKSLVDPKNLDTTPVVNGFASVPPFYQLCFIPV

One experiment has as its target T1, Cytochrome P450 2C9 (Homo sapiens, UniProt P11712). Nature of the experiment: Binding affinity measured on human cytochrome P450 2C9 (CYP2C9) enzyme.
In the case of `O=S(=O)(Nc1ccnn1-c1ccccc1)c1ccc(O)cc1`, the affinity, expressed as Ki, was 6 µM.
Take `C#Cc1ccc(C2(c3ccccc3)NC(=O)NC2=O)cc1` (stereo unspecified): the affinity corresponds to a Ki of 18 µM. Compared with the last molecule, the Ki is about 3-fold higher.
Take `CC(=O)c1ccc(S(=O)(=O)Nc2ccnn2-c2ccccc2)cc1`: the Ki – broadly, a measure of affinity in units of concentration, obtained from inhibition or displacement – is 2.4 µM.
For the molecule `O=C(O)Cc1ccccc1Nc1cc(Cl)ccc1Cl`, the affinity, expressed as Ki, was 2 µM. The Ki values of the last two molecules are within 1.5-fold of each other.
Take `C#Cc1ccc(S(=O)(=O)Nc2cc(C)on2)cc1`: the Ki was 3 µM.
Molecule `Cc1ccc(C)c(OCC(C)(C)C(=O)O)c1` returned a Ki of 15 µM.
`CC(C(=O)O)c1ccc(C(=O)c2cccs2)cc1` (stereo unspecified) [SUPROFEN] gave a Ki of 45 µM.
`C#Cc1ccc(S(=O)(=O)NC(=O)NCc2ccccc2)cc1` came in with an inhibition constant Ki of 25 µM.
Same read-out and setting: to `O=S(=O)(Nc1ccnn1-c1ccccc1)c1ccccc1` belongs 2 µM.
Still for that read-out and setting: to `C#Cc1ccc(S(=O)(=O)NC(=O)NCC(C)C)cc1` belongs 48 µM; to `COc1oc2ccccc2c(=O)c1[C@@H](CC(C)=O)c1ccccc1`, 21 µM.
In the case of `C#Cc1ccc(S(=O)(=O)NC(=O)NCCCC)cc1`, the Ki was 18 µM.
On the same count and under the same terms, to `C#Cc1ccc(S(=O)(=O)NC(=O)Nc2ccccc2)cc1` belongs 7 µM.

For the next experiment, the target named is T1, Cytochrome P450 2C9. Briefly: Binding affinity for human Cytochrome P450 2C9. The class given is ADME.
Consider `COc1oc2ccccc2c(=O)c1[C@H](CC(C)=O)c1ccccc1`, for which the Ki turned out to be 29 µM.

In another experiment the target is T1, Cytochrome P450 2C9. Nature of the experiment: Binding affinity was measured on Cytochrome P450 2C9. The class given is ADME.
On to `C[C@@H](O)C[C@H](c1ccccc1)c1c(O)oc2ccccc2c1=O`, for which the Ki was determined as 3 µM. This counts as single-digit micromolar.
With `CC[C@H](c1ccccc1)c1c(O)oc2ccccc2c1=O` (stereo in doubt; 8), the Ki is 0.5 µM.
On the same count and under the same terms, the figure for `COc1c([C@H](CC(C)=O)c2ccccc2)c(=O)oc2ccccc12` (stereo in doubt; 14) is 10 µM; for `CO[C@@]1(C)C[C@H](c2ccccc2)c2c(c3ccccc3oc2=O)O1` it is 1.5 µM; for `C[C@@H](O)C[C@@H](c1ccccc1)c1c(O)oc2ccccc2c1=O` it is 0.1 µM.
Regarding `[N-]=[N+]=Nc1ccc2oc(O)c(Cc3c(O)oc4ccc(N=[N+]=[N-])cc4c3=O)c(=O)c2c1`, the Ki was 3 µM.
`CC[C@@H](c1ccccc1)c1c(OC)oc2ccccc2c1=O`: the Ki was 0.1 µM.
As for `C#Cc1ccc2oc(O)c(C(C(C)=O)c3ccccc3)c(=O)c2c1` (stereo unspecified), the Ki is 1.5 µM.
For the molecule `CC[C@H](c1ccccc1)c1c(OC)oc2ccccc2c1=O`, the affinity, expressed as Ki, was 14 µM.
The same measure, in the same setting: the figure for `CO[C@]1(C)C[C@@H](c2ccccc2)c2c(c3ccccc3oc2=O)O1` is 20 µM.
On to `CC[C@H](c1ccccc1)c1c(O)oc2ccccc2c1=O` (stereo in doubt; 9), for which the affinity corresponds to a Ki of 18 µM. The Ki values of the last two molecules are within 1.5-fold of each other.
Molecule `CC1(O)C[C@H](c2ccccc2)c2c(c3ccccc3oc2=O)O1` (stereo partly specified) displayed a Ki of 7 µM.
The molecule `[N-]=[N+]=Nc1ccc(S(=O)(=O)Nc2ccnn2-c2ccccc2)cc1` gave a Ki of 0.4 µM.
Molecule `C[C@H](O)C[C@H](c1ccccc1)c1c(O)oc2ccccc2c1=O` displayed a Ki of 0.4 µM.
On the same count and under the same terms, to `C[C@H](O)C[C@@H](c1ccccc1)c1c(O)oc2ccccc2c1=O` belongs 3 µM.
On the same count and under the same terms, to `COc1c([C@H](CC(C)=O)c2ccccc2)c(=O)oc2ccccc12` (stereo in doubt; 15) belongs 2.4 µM; to `CC[C@@H](c1ccccc1)c1c(OC)c2ccccc2oc1=O`, 6 µM.
Molecule `CO[C@@]1(C)C[C@@H](c2ccccc2)c2c(c3ccccc3oc2=O)O1` (stereo in doubt; 4) gave a Ki of 7 µM.
For `C#Cc1ccc2c(=O)c(C(C(C)=O)c3ccccc3)c(O)oc2c1` (stereo unspecified), the Ki came out at 1.1 µM.
On the same count and under the same terms, to `CO[C@@]1(C)C[C@@H](c2ccccc2)c2c(c3ccccc3oc2=O)O1` (stereo in doubt; 6) belongs 1.1 µM; to `CC1(O)C[C@@H](c2ccccc2)c2c(c3ccccc3oc2=O)O1` (stereo partly specified), 25 µM; to `CC[C@H](c1ccccc1)c1c(OC)c2ccccc2oc1=O`, 13 µM.
